Laboratory results taken from patent publication US11945822B2, “Pyrazolo-triazine and/or pyrazolo-pxrimidine derivatives as selective inhibitor of cyclin dependent kinase” (QURIENT CO., LTD., priority 2018, dated 2024).

What follows are molecules tested against T1, CDK1/Cyclin B (Homo sapiens, UniProt P06493) (assay: Enzymatic assay for CDK1 (FRET based LANCE Ultra kinase assay)). Settings: read-out: CDK1 enzymatic activity (IC50 activity range).
T1 construct: purchased Invitrogen PR4768C
Assay type: biochemical
How it was run: (§1)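 Each CDK complex ([…]) phosphorylated 68 nM ULight-MBP peptide with ATP at Km for 60 min at 23° C., against 8 compound doses (4-fold dilutions). EDTA/Eu-anti-phospho-MBP detection, 60 min, then TR-FRET emission at 615 and 665 nm.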

T1 sequence (P06493 whole entry): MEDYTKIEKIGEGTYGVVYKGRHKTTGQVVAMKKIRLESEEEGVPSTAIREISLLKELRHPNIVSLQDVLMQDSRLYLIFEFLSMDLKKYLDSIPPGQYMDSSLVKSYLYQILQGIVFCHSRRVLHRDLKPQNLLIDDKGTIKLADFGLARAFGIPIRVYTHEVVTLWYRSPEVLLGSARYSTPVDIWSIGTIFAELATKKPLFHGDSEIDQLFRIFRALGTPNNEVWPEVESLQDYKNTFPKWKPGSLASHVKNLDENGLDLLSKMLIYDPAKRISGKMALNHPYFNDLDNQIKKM
T1 sequence (P14635 whole entry partner): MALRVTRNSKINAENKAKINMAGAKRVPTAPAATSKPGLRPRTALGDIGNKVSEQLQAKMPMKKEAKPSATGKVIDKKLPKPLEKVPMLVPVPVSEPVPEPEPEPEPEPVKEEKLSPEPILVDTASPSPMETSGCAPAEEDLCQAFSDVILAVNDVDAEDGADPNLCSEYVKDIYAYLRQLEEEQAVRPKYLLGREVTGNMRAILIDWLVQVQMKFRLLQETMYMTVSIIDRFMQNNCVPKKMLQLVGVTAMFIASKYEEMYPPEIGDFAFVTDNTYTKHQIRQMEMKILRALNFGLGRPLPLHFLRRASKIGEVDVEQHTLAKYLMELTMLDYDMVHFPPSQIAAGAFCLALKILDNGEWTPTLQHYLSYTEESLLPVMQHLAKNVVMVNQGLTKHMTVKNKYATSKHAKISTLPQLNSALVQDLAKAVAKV

Row | IC50 | Structure (SMILES)
1 | > 1 µM | CC(C)c1cnn2c(NCc3ccccc3-c3ccc4ccccc4n3)nc(N3CCOCC3)nc12 [Compound 268]
2 | > 1 µM | CC(C)c1cnn2c(NCc3c(Cl)cccc3-c3ccc4ccccc4n3)nc(N3CCCC[C@H]3CO)nc12 [Compound 264]

Same assay, conditions: read-out: CDK1 enzymatic activity (IC50 range)

Row | IC50 | Structure (SMILES)
3 | > 1 µM | Cc1cccc(-c2cc(C(C)(C)O)nn2C)c1CNc1nc(N2CCC(N)CC2)nc2c(C(C)C)cnn12 [Compound 231]
4 | > 1 µM | CC(C)c1cnn2c(NCc3ccccc3-c3cc4ccccc4[nH]3)nc(N3CCOC(CN)C3)nc12 (racemic) [Compound 130]

Each molecule was assayed against T2, CDK2/Cyclin A (Homo sapiens, UniProt P24941) (assay: Enzymatic assay for CDK2 (FRET based LANCE Ultra kinase assay)). Settings: read-out: CDK2 enzymatic activity (IC50 activity range).
T2 construct: purchased Invitrogen PV6290
Assay type: biochemical
How it was run: as §1

Row | IC50 | Structure (SMILES)
5 | > 1 µM | CC(C)c1cnn2c(NCc3ccccc3-c3ccc4ccccc4n3)nc(N3CCOCC3)nc12 [Compound 268]
6 | > 1 µM | CC(C)c1cnn2c(NCc3c(Cl)cccc3-c3ccc4ccccc4n3)nc(N3CCCC[C@H]3CO)nc12 [Compound 264]

Same assay, conditions: read-out: CDK2 enzymatic activity (IC50 range)

Row | IC50 | Structure (SMILES)
7 | > 1 µM | Cc1cccc(-c2cc(C(C)(C)O)nn2C)c1CNc1nc(N2CCC(N)CC2)nc2c(C(C)C)cnn12 [Compound 231]
8 | 0.1 to 1 µM | CC(C)c1cnn2c(NCc3ccccc3-c3cc4ccccc4[nH]3)nc(N3CCOC(CN)C3)nc12 (racemic) [Compound 130]

The molecules below were run against T3, CDK5/p25 (Homo sapiens, UniProt Q00535) (assay: Enzymatic assay for CDK5 (FRET based LANCE Ultra kinase assay)). Settings: read-out: CDK5 enzymatic activity (IC50 activity range).
T3 construct: purchased Invitrogen PR8543B
T3 sequence (Q00535 whole entry): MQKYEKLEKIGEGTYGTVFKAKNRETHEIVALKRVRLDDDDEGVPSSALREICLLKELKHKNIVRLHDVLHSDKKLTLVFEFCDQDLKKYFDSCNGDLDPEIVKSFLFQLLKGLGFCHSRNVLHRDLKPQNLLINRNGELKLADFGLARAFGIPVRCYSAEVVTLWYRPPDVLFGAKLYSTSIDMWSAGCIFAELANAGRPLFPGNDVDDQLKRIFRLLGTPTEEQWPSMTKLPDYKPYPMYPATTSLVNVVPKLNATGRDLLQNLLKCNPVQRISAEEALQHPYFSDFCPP
T3 sequence (Q15078 99-307 partner limits assumed): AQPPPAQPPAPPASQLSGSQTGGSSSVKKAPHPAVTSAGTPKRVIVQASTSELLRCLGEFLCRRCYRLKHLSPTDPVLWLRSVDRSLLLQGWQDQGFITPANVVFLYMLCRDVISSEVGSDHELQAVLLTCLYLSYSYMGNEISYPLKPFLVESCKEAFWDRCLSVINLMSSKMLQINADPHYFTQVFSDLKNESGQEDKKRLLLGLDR
Assay type: biochemical
How it was run: as §1

Row | IC50 | Structure (SMILES)
9 | > 1 µM | CC(C)c1cnn2c(NCc3ccccc3-c3ccc4ccccc4n3)nc(N3CCOCC3)nc12 [Compound 268]
10 | > 1 µM | CC(C)c1cnn2c(NCc3c(Cl)cccc3-c3ccc4ccccc4n3)nc(N3CCCC[C@H]3CO)nc12 [Compound 264]

Same assay, conditions: read-out: CDK5 enzymatic activity (IC50 range)

Row | IC50 | Structure (SMILES)
11 | > 1 µM | Cc1cccc(-c2cc(C(C)(C)O)nn2C)c1CNc1nc(N2CCC(N)CC2)nc2c(C(C)C)cnn12 [Compound 231]
12 | 0.1 to 1 µM | CC(C)c1cnn2c(NCc3ccccc3-c3cc4ccccc4[nH]3)nc(N3CCOC(CN)C3)nc12 (racemic) [Compound 130]

The molecules below were run against T4, CDK7/Cyclin H/MNAT1 (Homo sapiens, UniProt P50613) (assay: Enzymatic assay for CDK7 (FRET based LANCE Ultra kinase assay)). Settings: CDK1/CDK7.
T4 construct: purchased Invitrogen PR6749B
T4 sequence (P50613 whole entry): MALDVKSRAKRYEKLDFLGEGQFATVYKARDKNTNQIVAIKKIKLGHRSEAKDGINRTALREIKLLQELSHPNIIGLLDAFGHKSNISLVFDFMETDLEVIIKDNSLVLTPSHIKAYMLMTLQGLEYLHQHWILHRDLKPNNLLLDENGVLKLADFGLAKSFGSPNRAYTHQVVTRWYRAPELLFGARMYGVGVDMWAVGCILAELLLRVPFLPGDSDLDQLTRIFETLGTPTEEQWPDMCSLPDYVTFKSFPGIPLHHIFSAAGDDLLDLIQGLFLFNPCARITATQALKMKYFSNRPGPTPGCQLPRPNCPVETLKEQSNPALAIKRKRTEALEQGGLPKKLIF
T4 sequence (P51946 whole entry partner): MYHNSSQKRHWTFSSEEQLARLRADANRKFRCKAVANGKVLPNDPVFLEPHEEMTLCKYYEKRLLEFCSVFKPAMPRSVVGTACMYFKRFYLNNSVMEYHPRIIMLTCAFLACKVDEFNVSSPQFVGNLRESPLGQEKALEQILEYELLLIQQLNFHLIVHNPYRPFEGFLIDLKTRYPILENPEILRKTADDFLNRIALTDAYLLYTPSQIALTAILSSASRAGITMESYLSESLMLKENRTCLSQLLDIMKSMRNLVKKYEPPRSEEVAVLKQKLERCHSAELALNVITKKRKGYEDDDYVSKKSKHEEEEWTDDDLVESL
T4 sequence (P51948 whole entry partner): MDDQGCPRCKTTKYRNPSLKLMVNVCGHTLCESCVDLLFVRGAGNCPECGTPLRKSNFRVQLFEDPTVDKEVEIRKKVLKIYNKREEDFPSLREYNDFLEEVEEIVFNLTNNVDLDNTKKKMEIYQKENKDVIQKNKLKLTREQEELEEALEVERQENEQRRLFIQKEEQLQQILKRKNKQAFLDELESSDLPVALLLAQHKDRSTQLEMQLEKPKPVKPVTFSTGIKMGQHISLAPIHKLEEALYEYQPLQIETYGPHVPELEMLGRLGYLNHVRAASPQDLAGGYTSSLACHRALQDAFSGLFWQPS
Assay type: biochemical
How it was run: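 Inhibition was measured at Km ATP by time-resolved FRET between a Eu anti-phospho antibody and a phosphorylated ULight peptide. The enzyme was the purified CDK7/cyclin complex, and data were curve-fitted.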

Row | Structure (SMILES) | CDK1/CDK7: Selectivity of CDK7 inhibition over CDK1 inhibition
13 | CC(C)c1cnn2c(NCc3ccccc3-c3ccc4ccccc4n3)nc(N3CCOCC3)nc12 [Compound 268] | A (A=greater than 200 fold)
14 | CC(C)c1cnn2c(NCc3c(Cl)cccc3-c3ccc4ccccc4n3)nc(N3CCCC[C@H]3CO)nc12 [Compound 264] | B (B=less than 200 fold, but greater than 20 fold)

Same assay, conditions: CDK2/CDK7

Row | Structure (SMILES) | CDK2/CDK7: Selectivity of CDK7 inhibition over CDK2 inhibition
15 | CC(C)c1cnn2c(NCc3ccccc3-c3ccc4ccccc4n3)nc(N3CCOCC3)nc12 [Compound 268] | A (A=greater than 200 fold)
16 | CC(C)c1cnn2c(NCc3c(Cl)cccc3-c3ccc4ccccc4n3)nc(N3CCCC[C@H]3CO)nc12 [Compound 264] | B (B=less than 200 fold, but greater than 20 fold)

Same assay, conditions: CDK5/CDK7

Row | Structure (SMILES) | CDK5/CDK7: Selectivity of CDK7 inhibition over CDK5 inhibition
17 | CC(C)c1cnn2c(NCc3ccccc3-c3ccc4ccccc4n3)nc(N3CCOCC3)nc12 [Compound 268] | A (A=greater than 200 fold)
18 | CC(C)c1cnn2c(NCc3c(Cl)cccc3-c3ccc4ccccc4n3)nc(N3CCCC[C@H]3CO)nc12 [Compound 264] | B (B=less than 200 fold, but greater than 20 fold)

Same assay, conditions: CDK7 over CDK1

Row | CDK1/CDK7: Selectivity of CDK7 inhibition over CDK1 inhibition | Structure (SMILES)
19 | A (A=greater than 200 fold) | Cc1cccc(-c2cc(C(C)(C)O)nn2C)c1CNc1nc(N2CCC(N)CC2)nc2c(C(C)C)cnn12 [Compound 231]
20 | A (A=greater than 200 fold) | CC(C)c1cnn2c(NCc3ccccc3-c3cc4ccccc4[nH]3)nc(N3CCOC(CN)C3)nc12 (racemic) [Compound 130]

Same assay, conditions: CDK7 over CDK2

Row | Structure (SMILES) | CDK2/CDK7: Selectivity of CDK7 inhibition over CDK2 inhibition
21 | Cc1cccc(-c2cc(C(C)(C)O)nn2C)c1CNc1nc(N2CCC(N)CC2)nc2c(C(C)C)cnn12 [Compound 231] | A (A=greater than 200 fold)
22 | CC(C)c1cnn2c(NCc3ccccc3-c3cc4ccccc4[nH]3)nc(N3CCOC(CN)C3)nc12 (racemic) [Compound 130] | B (B=less than 200 fold, but greater than 20 fold)

Same assay, conditions: CDK7 over CDK5

Row | Structure (SMILES) | CDK5/CDK7: Selectivity of CDK7 inhibition over CDK5 inhibition
23 | Cc1cccc(-c2cc(C(C)(C)O)nn2C)c1CNc1nc(N2CCC(N)CC2)nc2c(C(C)C)cnn12 [Compound 231] | A (A=greater than 200 fold)
24 | CC(C)c1cnn2c(NCc3ccccc3-c3cc4ccccc4[nH]3)nc(N3CCOC(CN)C3)nc12 (racemic) [Compound 130] | B (B=less than 200 fold, but greater than 20 fold)

Same assay, conditions: read-out: CDK7 enzymatic activity (IC50 activity range)

Row | IC50 | Structure (SMILES)
25 | < 0.1 µM | CC(C)c1cnn2c(NCc3ccccc3-c3ccc4ccccc4n3)nc(N3CCOCC3)nc12 [Compound 268]
26 | 0.1 to 1 µM | CC(C)c1cnn2c(NCc3c(Cl)cccc3-c3ccc4ccccc4n3)nc(N3CCCC[C@H]3CO)nc12 [Compound 264]

Same assay, conditions: read-out: CDK7 enzymatic activity (IC50 range)

Row | IC50 | Structure (SMILES)
27 | < 0.1 µM | Cc1cccc(-c2cc(C(C)(C)O)nn2C)c1CNc1nc(N2CCC(N)CC2)nc2c(C(C)C)cnn12 [Compound 231]
28 | < 0.1 µM | CC(C)c1cnn2c(NCc3ccccc3-c3cc4ccccc4[nH]3)nc(N3CCOC(CN)C3)nc12 (racemic) [Compound 130]

These molecules were tested on HCT116 (assay: Cellular HCT116 viability assay (CellTiter-Glo, 72 hours)). Settings: Homo sapiens, HCT-116.
Assay type: cell-based
How it was run: (§2)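 Luminescent ATP read-out (CellTiter-Glo) after 72 h compound exposure at 37 °C/5% CO2; duplicate wells; vehicle control DMSO <0.1% final; seeding density set per cell line.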

Row | IC50 | Structure (SMILES)
29 | < 1 µM | Cc1cccc(-c2cc(C(C)(C)O)nn2C)c1CNc1nc(N2CCC(N)CC2)nc2c(C(C)C)cnn12 [Compound 231]

The molecules below were run on H460 (assay: Cellular H460 viability assay (CellTiter-Glo, 72 hours)). Settings: Homo sapiens, NCI-H460.
Assay type: cell-based
How it was run: as §2

Row | IC50 | Structure (SMILES)
30 | < 1 µM | Cc1cccc(-c2cc(C(C)(C)O)nn2C)c1CNc1nc(N2CCC(N)CC2)nc2c(C(C)C)cnn12 [Compound 231]
31 | < 1 µM | CC(C)c1cnn2c(NCc3ccccc3-c3cc4ccccc4[nH]3)nc(N3CCOC(CN)C3)nc12 (racemic) [Compound 130]
32 | < 1 µM | CC(C)c1cnn2c(NCc3ccccc3-c3ccc4ccccc4n3)nc(N3CCOCC3)nc12 [Compound 268]
33 | > 10 µM | CC(C)c1cnn2c(NCc3c(Cl)cccc3-c3ccc4ccccc4n3)nc(N3CCCC[C@H]3CO)nc12 [Compound 264]

Each molecule was assayed on MV4-11 (assay: Cellular MV4-11 viability assay (CellTiter-Glo, 72 hours)). Settings: Homo sapiens.
Assay type: cell-based
How it was run: as §2

Row | IC50 | Structure (SMILES)
34 | < 1 µM | Cc1cccc(-c2cc(C(C)(C)O)nn2C)c1CNc1nc(N2CCC(N)CC2)nc2c(C(C)C)cnn12 [Compound 231]
35 | < 1 µM | CC(C)c1cnn2c(NCc3ccccc3-c3cc4ccccc4[nH]3)nc(N3CCOC(CN)C3)nc12 (racemic) [Compound 130]
36 | > 10 µM | CC(C)c1cnn2c(NCc3ccccc3-c3ccc4ccccc4n3)nc(N3CCOCC3)nc12 [Compound 268]
37 | > 10 µM | CC(C)c1cnn2c(NCc3c(Cl)cccc3-c3ccc4ccccc4n3)nc(N3CCCC[C@H]3CO)nc12 [Compound 264]

What follows are molecules tested on RPMI-8226 (assay: Cellular RPMI-8226 viability assay (CellTiter-Glo, 72 hours)). Settings: Homo sapiens.
Assay type: cell-based
How it was run: as §2

Row | IC50 | Structure (SMILES)
38 | < 1 µM | CC(C)c1cnn2c(NCc3ccccc3-c3cc4ccccc4[nH]3)nc(N3CCOC(CN)C3)nc12 (racemic) [Compound 130]

These molecules were tested on A2780 (assay: Cellular A2780 viability assay (CellTiter-Glo, 72 hours)). Settings: Homo sapiens.
Assay type: cell-based
How it was run: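 Compound exposure lasted 72 h at 37° C, 5% CO2, over 0.0015–10 uM, DMSO kept under 0.1%, with dosing 24 h after seeding. Seeding: A2780 1×10^3, OVCAR-3 5×10^3, MM.1S 1×10^4 cells/well in 10% FBS RPMI-1640. Duplicate CellTiter-Glo luminescence readout.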

Row | IC50 | Structure (SMILES)
39 | ≤ 1 µM | Cc1cccc(-c2cc(C(C)(C)O)nn2C)c1CNc1nc(N2CCC(N)CC2)nc2c(C(C)C)cnn12 [Compound 231]
40 | ≤ 1 µM | CC(C)c1cnn2c(NCc3ccccc3-c3cc4ccccc4[nH]3)nc(N3CCOC(CN)C3)nc12 (racemic) [Compound 130]
41 | 1 to 10 µM | CC(C)c1cnn2c(NCc3ccccc3-c3ccc4ccccc4n3)nc(N3CCOCC3)nc12 [Compound 268]
42 | > 10 µM | CC(C)c1cnn2c(NCc3c(Cl)cccc3-c3ccc4ccccc4n3)nc(N3CCCC[C@H]3CO)nc12 [Compound 264]
